According to PMC6269498, “Increased activity of MdFRK2, a high-affinity fructokinase, leads to upregulation of sorbitol metabolism and downregulation of sucrose metabolism in apple leaves” (Horticulture Research, 2018):

Tested on: MdFRK1
Assay: coupled spectrophotometric assay (phosphoglucoisomerase / G6P dehydrogenase), […] nm
Format: biochemical, Malus domestica
Details: 50 mM Tris-HCl pH 8.0, 4 mM MgCl2, 2.5 mM ATP; substrate inhibition above 2 mM fructose

- Km: 620 µM
SMILES: OCC1(O)OC[C@@H](O)[C@@H](O)[C@@H]1O (stereo partly shown) [fructose]
